Data set [1] addresses T1, SLC-1 expression CHO cell membrane fraction (MCH receptor) (Homo sapiens, UniProt Q99705).
T1 construct: expressed in transfected cells; host or cells: CHO cells (human SLC-1 clone 57 / rat SLC-1 clone 44), membrane fraction
The data set is described as follows: Antagonistic activity of test compound using GTPγS binding assay. It counts as biochemical, human/rat. Conditions: [35S]-GTPγS binding stimulated by MCH, 25° C., 1 hr, read-out: inhibitory activity (IC50: nM). As for the experimental part:
Determination of Antagonistic Activity of Test Compound using GTPγS Binding Assay
Using human SLC-1 expression CHO cell clone 57 and rat SLC-1 expression CHO cell clone 44 described in WO01/82925, SLC-1 expression CHO cell membrane fractions were prepared by the following method. In phosphate buffered saline (pH 7.4) supplemented with 5 mM EDTA (ethylenediaminetetraacetic acid) were suspended human and rat SLC-1 expression CHO cells (1×10^8) and centrifuged. Homogenate buffer (10 ml, 10 mM NaHCO3, 5 mM EDTA, pH 7.5) was added to the pellets of the cells and, using Polytron Homogenizer, the mixture was homogenated. The supernatant obtained after centrifugation at 400×g for 15 min was further centrifuged at 100,000×g for 1 hr to give precipitate of the membrane fraction. The precipitate was suspended in 2 ml of an assay buffer [50 mM Tris-HCl (pH 7.5), 1 mM EDTA, 0.1% BSA (bovine serum albumin), 10 mM MgCl2, 100 mM NaCl, 1 μM GDP (guanosine 5′-diphosphate), 0.25 mM PMSF (phenylmethylsulfonyl fluoride), […] pepstatin, […] leupeptin, […] phosphoramidon] and centrifuged at 100,000×g for 1 hr. The membrane fraction recovered as precipitate was suspended again in 20 ml of an assay buffer, and after dispensing, preserved at −80° C. and used upon thawing each time when in use.
The antagonistic activity of the test compound was determined as follows. The SLC-1 expression CHO cell membrane fraction (171 μl) diluted with an assay buffer was dispensed to a polypropylene 96 well plate and 3×10^−10 M MCH (2 μl) diluted with DMSO solution, test compound solution (2 μl) diluted to various concentrations and [^35S]-Guanosine 5′-(γ-thio)triphosphate ([…] Daiichi Pure Chemicals Co., Ltd.) were respectively added (cell membrane final concentration: 20 μg/ml, [^35S]-Guanosine 5′-(γ-thio)triphosphate final concentration: 0.33 nM). The reaction mixture was reacted at 25° C. for 1 hr with stirring, suction filtered with a glass filter (GF-C) and washed 3 times with a wash solution (300 μl, 50 mM Tris-HCl buffer, pH 7.5). Liquid scintillator ([…]) was added to the glass filter and the residual radioactivity was determined by a liquid scintillation counter. Binding inhibition (%)=(radioactivity upon addition of test compound and MCH−radioactivity upon addition of DMSO solution)/(radioactivity upon addition of MCH−radioactivity upon addition of DMSO solution)×100
From the binding inhibition (%), IC50 of the test compound was calculated.
For orientation: GTPγS is a poorly hydrolysed GTP analogue; its binding reports G protein activation.

Structures are written as SMILES. Structures can show the parent of a compound that is named as a salt.

T1 sequence (Q99705 whole entry): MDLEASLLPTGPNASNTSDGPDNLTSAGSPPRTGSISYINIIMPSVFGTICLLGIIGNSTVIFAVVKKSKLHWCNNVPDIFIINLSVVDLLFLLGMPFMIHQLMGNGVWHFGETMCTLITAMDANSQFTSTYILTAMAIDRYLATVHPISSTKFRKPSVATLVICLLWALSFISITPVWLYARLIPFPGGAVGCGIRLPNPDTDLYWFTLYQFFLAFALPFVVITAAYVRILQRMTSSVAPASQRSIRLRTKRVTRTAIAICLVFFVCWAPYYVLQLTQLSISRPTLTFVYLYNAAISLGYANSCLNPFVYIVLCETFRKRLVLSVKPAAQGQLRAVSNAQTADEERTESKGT

For orientation: melting point means the temperature, or range, at which the solid turns liquid. As usually defined, the IC50 is the concentration at which inhibition is half-maximal. `O=c1c2sc(-c3ccc(Cl)cc3)cc2ncn1CCc1ccc(CN2CCCC2)cc1` [Example 1, 6-(4-chlorophenyl)-3-{2-[4-(pyrrolidin-1-ylmethyl)phenyl]ethyl}thieno[3,2-d]pyrimidin-4(3H)-one]: the melting point was in the range of 163 to 166 °C. The IC50 in data set [1] is 0.3 nM.
`CC(c1ccc(CCn2cnc3cc(-c4ccc(Cl)cc4)sc3c2=O)cc1)N1CCCCC1` (stereo not drawn) [Example 2, 6-(4-chlorophenyl)-3-{2-[4-(1-piperidin-1-ylethyl)phenyl]ethyl}thieno[3,2-d]pyrimidin-4(3H)-one] came in with a melting point of 175 to 179 °C. In data set [1], the IC50 was 0.4 nM.
On to `CC(=O)N(C)N(C)c1ccc(CCn2cnc3cc(-c4ccc(Cl)cc4)sc3c2=O)cc1` [Example 22, N′-[4-[2-[6-(4-chlorophenyl)-4-oxothieno[3,2-d]pyrimidin-3(4H)-yl]ethyl]phenyl]-N,N′-dimethylacetohydrazide], for which the IC50 in data set [1] was 10 nM.
`O=C1CCCN1Cc1ccc(CCn2cnc3cc(-c4ccc(Cl)cc4)sc3c2=O)cc1` [Example 11, 6-(4-chlorophenyl)-3-(2-{4-[(2-oxopyrrolidin-1-yl)methyl]phenyl}ethyl)thieno[3,2-d]pyrimidin-4(3H)-one] came in with a melting point of 218 to 221 °C. Moreover, the IC50 in data set [1] was found to be 3.2 nM.
In the case of `CC(=O)N(C)Cc1ccc(CCn2cnc3cc(-c4ccc(Cl)cc4)sc3c2=O)cc1` [Example 6, N-(4-{2-[6-(4-chlorophenyl)-4-oxothieno[3,2-d]pyrimidin-3(4H) -yl]ethyl}benzyl)-N-methylacetamide], the melting point lay within 176 to 178 °C. For the same molecule, in data set [1], the IC50 was found to be 4.8 nM.
As to `CN(C)C(=S)N(C)Cc1ccc(CCn2cnc3cc(-c4ccc(Cl)cc4)sc3c2=O)cc1` [Example 9, N-(4-{2-[6-(4-chlorophenyl)-4-oxothieno[3,2-d]pyrimidin-3(4H) -yl]ethyl}benzyl)-N,N′,N′-trimethylthiourea], the melting point lay in the range of 156 to 158 °C. Further, in data set [1], the IC50 is 4.7 nM.
With `O=c1c2sc(-c3ccc(Cl)cc3)cc2ncn1CCc1ccc(CN2CC[C@H](F)C2)cc1` [Example 18, 6-(4-chlorophenyl)-3-[2-(4-{[(3S)-3-fluoropyrrolidin-1-yl]methyl}phenyl)ethyl]thieno[3,2-d]pyrimidin-4(3H)-one], the IC50 in data set [1] was found to be 1.2 nM.
Consider `CNCc1ccc(CCn2cnc3cc(-c4ccc(Cl)cc4)sc3c2=O)cc1` [Example 4, 6-(4-chlorophenyl)-3-(2-{4-[(methylamino)methyl]phenyl}ethyl)thieno[3,2-d]pyrimidin-4(3H)-one dihydrochloride], for which the IC50 in data set [1] came out at 0.4 nM.
Molecule `CCN1CCN(Cc2ccc(CCn3cnc4cc(-c5ccc(Cl)cc5)sc4c3=O)cc2)C(=O)C1=O` [Example 34, 1-(4-{2-[6-(4-chlorophenyl)-4-oxothieno[3,2-d]pyrimidin-3(4H) -yl]ethyl}benzyl)-4-ethylpiperazine-2,3-dione] gave a melting point of 285 to 288 °C.
As to `CN(CC(N)=O)Cc1ccc(CCn2cnc3cc(-c4ccc(Cl)cc4)sc3c2=O)cc1` [Example 32, N^2-(4-{2-[6-(4-chlorophenyl)-4-oxothieno[3,2-d]pyrimidin-3(4H) -yl]ethyl}benzyl)-N^2-methylglycinamide], the melting point was 207 to 212 °C. The IC50 in data set [1] was 5 nM.
For the molecule `O=C1CNCCN1Cc1ccc(CCn2cnc3cc(-c4ccc(Cl)cc4)sc3c2=O)cc1` (as salt: hydrochloride) [Example 38, 6-(4-chlorophenyl)-3-(2-{4-[(2-oxopiperazin-1-yl)methyl]phenyl}ethyl)thieno[3,2-d]pyrimidin-4(3H)-one dihydrochloride], the melting point lay in the range of 271 to 278 °C.
In turn, `O=C1C[C@@H](O)CN1Cc1ccc(CCn2cnc3cc(-c4ccc(Cl)cc4)sc3c2=O)cc1` [Example 33, 6-(4-chlorophenyl)-3-[2-(4-{[(4R)-4-hydroxy-2-oxopyrrolidin-1-yl]methyl}phenyl)ethyl]thieno[3,2-d]pyrimidin-4(3H)-one] showed a melting point of 243 to 246 °C.

Source of the values: patent US7989445B2, “Thienopyrimidone compound” (Takeda Pharmaceutical Company Limited, priority 2005, dated 2011).
